Results taken from patent US9102678B2, “Compounds and methods for inhibiting mitotic progression” (Millennium Pharmaceuticals, Inc., priority 2004, dated 2015).

Target: T1, recombinant murine Aurora A enzyme (Mus musculus, UniProt P97477)
T1 construct: hexahistidine (His6) (N); made in house; host or cells: insect cells, baculovirus (Bac-to-Bac, Invitrogen)
Assay: Aurora A DELFIA Kinase Assay
Assay type: biochemical
Settings: mouse Aurora A, 250 μM ATP; threshold less than or equal to 100 nM; read-out: IC50

T1 sequence (P97477 whole entry): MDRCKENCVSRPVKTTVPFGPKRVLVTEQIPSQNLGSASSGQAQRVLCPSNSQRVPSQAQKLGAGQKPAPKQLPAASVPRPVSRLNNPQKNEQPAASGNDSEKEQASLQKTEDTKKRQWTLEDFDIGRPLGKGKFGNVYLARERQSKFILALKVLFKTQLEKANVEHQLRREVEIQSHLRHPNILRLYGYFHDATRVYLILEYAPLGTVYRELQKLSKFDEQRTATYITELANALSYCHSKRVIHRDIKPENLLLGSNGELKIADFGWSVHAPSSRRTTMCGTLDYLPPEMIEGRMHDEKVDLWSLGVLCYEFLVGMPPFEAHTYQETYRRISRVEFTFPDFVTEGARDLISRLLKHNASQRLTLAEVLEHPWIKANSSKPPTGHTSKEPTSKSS

IC50: ≤ 100 nM
SMILES: CNC(=O)c1ccc2c(c1)C(c1c(F)cccc1F)=NCc1cnc(Nc3ccc(C(=O)N4CC(C)NC(C)C4)cc3)nc1-2 (stereo not shown) [Compound I-376, 7-(2,6-difluorophenyl)-2-({4-[(3,5-dimethylpiperazin-1-yl)carbonyl]phenyl}amino)-N-methyl-5H-pyrimido[5,4-d][2]benzazepine-9-carboxamide]
